In brackets after ≈: the same amount, converted by molar mass. Several values for one entry are separate records, joined by “and”; a condition that tells them apart may be missing. Identical values can stand only once. Like-named read-outs stand apart in the source and are kept apart here. Where only a bound is given, the exact number is not on record here.

The test system of assay [1] is NrtB. Format: cell-based, Aspergillus nidulans. As to conditions: for Nitrate uptake ± SE: nrtA747 (NrtB); for nature of inhibition of nitrate transport (Lineweaver–Burk): NrtB (expressed in nrtA1); for Ki: inhibitor concentration reducing net nitrate uptake rate by 50 % of control. As for the experimental part: (§1) These were performed on cultures grown in liquid AMM with 5 mM urea as nitrogen source for a total of 6.5 h at 37 °C ([Brownlee & Arst, 1983]). Urea was used as it (i) is a neutral nitrogen source, neither inducing nor repressing nitrate transport, (ii) has been used routinely in the past and (iii) permitted direct comparison with previously published results. […] Transporter activity was induced by the addition of 10 mM sodium nitrate 100 min prior to assay as described previously ([Brownlee & Arst, 1983]). Assays were carried out in triplicate, generally at pH 6.5, on three independently grown cultures for each strain and expressed as nmol nitrate removed from the medium min^ − 1 (mg dried mycelium)^ − 1, as discussed before ([Brownlee & Arst, 1983]; [Kinghorn et al., 2005]; [Unkles et al., 2012]). Both carbonic acid and bicarbonate chemical species can occur at pH 6.5. Thus potential inhibition of nitrate transport by carbonic acid/bicarbonate was tested at pH 6.5 and bicarbonate at pH 8.3.
(§2) To effectively assess net uptake, it is necessary that any export, i.e. simultaneous transport in the reverse direction, is minimal.
(§3) Values of K m and V max were calculated by linear regression of Lineweaver–Burk analyses (1/v against 1/s, where v is net uptake and s is substrate concentration). The kinetic values of nitrate transport by the WT and mutants were compared with those from a previous report ([Unkles et al., 2001]). […] Therefore the kinetic values in the absence of inhibitors from the present study were used as control values. Each K i value was determined by regression of the rates of net nitrate uptake transport versus the range of concentrations of a particular inhibitor: linear or nonlinear regression was used, depending on which type provided the highest r ^2 value. Calculated from each regression was the concentration of the inhibitor that reduced net nitrate uptake rate by 50 % of the control (without inhibitor) rate, which was assessed as the K i value. Lineweaver–Burk analyses were carried out to determine the nature of the inhibition of nitrate transport for each inhibitor.

The subject of assay [2] is A. nidulans WT and mutant strains. Format: cell-based, Aspergillus nidulans. As to conditions: for growth stunting on solid AMM: up to 100 mM, 1 mM nitrate (or proline) as sole nitrogen source, data not shown. The protocol: (§4) Fungal growth tests were carried out in standard Petri dishes containing defined Aspergillus minimal medium (AMM) agar ([Cove, 1976]), with sodium nitrate or proline as the sole nitrogen source, at 1 or 10 mM concentration. Strains were tested for inhibition by bicarbonate, formate, oxalate, chlorite, sulphite (all purchased as the sodium salt), chlorate (potassium salt), malonate (acid form) or caesium (chloride salt). Stock aqueous solutions of inhibitors were adjusted to pH 6.5 and prepared immediately before use. It should be noted that at pH 6.5, bicarbonate is in approximately 50 % equilibrium with carbonic acid. […] Cultures were incubated routinely at 37 °C for 48 h, and the growth response was scored.
(§5) Each treatment was carried out in five replicates. […] As caesium was utilized as a chloride salt, a control for potential inhibition by chloride was assessed, by growth on 100 mM sodium chloride (Fig. 4).
Unlike chlorate, commercial chemical supplies of chlorite typically contain a relatively high percentage (20 %) of contaminants. […] The pH of this solution was adjusted to 6.5 and aliquots incorporated into solid AMM (with nitrate or proline as the nitrogen source) at final concentrations equivalent to those that would be present in agar medium containing 10 mM chlorite (i.e. 1.56 mM sodium chloride, 0.28 mM sodium chlorate, 0.68 mM sodium hydroxide and 0.17 mM sodium carbonate).

In assay [3] the test system is nitrate transport by NrtA and NrtB. As to the kind of experiment: Net nitrate transport inhibition assays, strain not specified. The format is cell-based, Aspergillus nidulans. As to conditions: net nitrate transport inhibition assays (Tables 3 and 4). The protocol:
as §1, §2

Assay [4] has as its target T1, NrtA (Emericella nidulans, UniProt P22152). In words: cell-based. More on the design: mutant nrtB110 (expressing a functional NrtA); endogenous in cells; host or cells: Aspergillus nidulans mycelium, knockout strain nrtB110, nitrate-induced; species or system Aspergillus nidulans. The following applies: for nature of inhibition of nitrate transport (Lineweaver–Burk): NrtA (expressed in nrtB110). As for the experimental part:
as §1, §2, §3

Assay [5] concerns A. nidulans WT strain (NrtA, NrtB). In words: MIC growth test on solid AMM, WT strain. The format is cell-based, Aspergillus nidulans. The protocol:
as §4, §5

Assay [6] has as its system A. nidulans double mutant tbl110 (nrtA747 nrtB110, neither transporter). As to the kind of experiment: microbe, parasite or virus in culture. Format: cell-based, Aspergillus nidulans. The following applies: T110 (neither transporter). The protocol: as §4, §5
Assay [7] concerns A. nidulans mutant nrtA1 (functional NrtB). As to the kind of experiment: microbe, parasite or virus in culture. Format: cell-based, Aspergillus nidulans. As for the experimental part: as §4, §5
Assay [8] relates to A. nidulans mutant nrtB110 (functional NrtA). In words: microbe, parasite or virus in culture. The format is cell-based, Aspergillus nidulans. As for the experimental part:
as §4, §5

A further assay addresses NrtA, NrtB (WT strain). In words: Net nitrate uptake assay and kinetics, WT strain. As to conditions: mean ± SE; for Ki: WT (NrtA, NrtB), inhibitor concentration reducing net nitrate uptake rate by 50 % of control. Format: cell-based, Aspergillus nidulans. As for the experimental part:
as §1, §2, §3

In assay [9] the target is T1, NrtA. As to conditions: cited from earlier work.
In assay [10] the test system is NrtB. The following applies: cited from earlier work.
In the next assay the test system is A. nidulans WT strain. The following applies: ref Wang et al., 2007; cited from earlier work.
The mark [11] stands for this setting: Aspergillus nidulans, 1 mM proline as sole nitrogen source.
The mark [12] stands for this setting: Aspergillus nidulans, 10 mM nitrate as sole nitrogen source.
Setting [13] is: Aspergillus nidulans, 10 mM proline as sole nitrogen source.
Where [14] appears, read: nrtB110 (NrtA), 1 mM nitrate as sole nitrogen source.
Where [15] appears, read: nrtB110 (NrtA), 1 mM proline as sole nitrogen source.
Setting [16] is: nrtB110 (NrtA), 10 mM nitrate as sole nitrogen source.
Where [17] appears, read: nrtB110 (NrtA), 10 mM proline as sole nitrogen source.
Setting [18] is: pH 6.5, in presence of the anion, control without anion 2.9 ± 0.1.
The mark [19] stands for this setting: nrtB110 (NrtA), pH 6.5, in presence of the anion, control without anion 10.6 ± 1.4.
Setting [20] is: 1 mM proline as sole nitrogen source.
Where [21] appears, read: 10 mM nitrate as sole nitrogen source.
The mark [22] stands for this setting: 10 mM proline as sole nitrogen source.
The mark [23] stands for this setting: nitrate transport, WT, no inhibitor.
Where [24] appears, read: nitrate transport, nrtA1 (NrtB), no inhibitor, mean ± SE.
[25] abbreviates: nitrate transport, nrtB110 (NrtA), no inhibitor, mean ± SE.

T1 sequence (P22152 whole entry): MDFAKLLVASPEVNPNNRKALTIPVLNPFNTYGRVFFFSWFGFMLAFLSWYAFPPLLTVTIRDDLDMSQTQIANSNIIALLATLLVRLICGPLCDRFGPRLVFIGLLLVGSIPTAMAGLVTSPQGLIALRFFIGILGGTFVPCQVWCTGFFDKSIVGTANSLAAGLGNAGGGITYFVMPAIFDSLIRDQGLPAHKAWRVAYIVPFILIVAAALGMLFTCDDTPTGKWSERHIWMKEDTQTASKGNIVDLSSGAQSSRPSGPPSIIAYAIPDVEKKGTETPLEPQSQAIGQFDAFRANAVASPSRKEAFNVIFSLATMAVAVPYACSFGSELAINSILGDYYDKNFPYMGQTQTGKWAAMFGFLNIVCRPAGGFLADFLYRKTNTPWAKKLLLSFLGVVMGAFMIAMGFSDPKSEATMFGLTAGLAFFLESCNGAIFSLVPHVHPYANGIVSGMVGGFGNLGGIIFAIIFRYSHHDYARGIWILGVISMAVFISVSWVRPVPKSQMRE

Turning to `O=C(O)O` [Bicarbonate, bicarbonate], the “Nitrate uptake ± SE” value in the assay on NrtB [1] (pH 8.3, in presence of the anion, control without anion 1.9 ± 0.7) is given as 1.9 ± 0.3 nmol NO3 min^− 1 mg^− 1; on NrtA [4] (nrtB110 (NrtA), pH 8.3, in presence of the anion, control without anion 0.7 ± 0.4), 0.5 ± 0.7 nmol NO3 min^− 1 mg^− 1. For the same compound, in assay [2], the “growth stunting on solid AMM” value is given as “no convincing phenotypic evidence of growth stunting”. In [3], the “inhibition of nitrate transport / uptake” value is “did not inhibit growth or nitrate uptake”.

The Ki is the dissociation constant of the complex between target and ligand, obtained from inhibition or displacement. Read a high Ki as a looser hold on the target. As for `[Cs+]` [Caesium, caesium], the MIC in assay [5] (Aspergillus nidulans, 1 mM nitrate as sole nitrogen source, solid AMM, 37 °C) was 100 mM; in assay [5] (setting [11]) it was 80 mM; in [5] (setting [12]) it was over 100 mM; in assay [5] (setting [13]), 60 mM; in assay [6] (setting [11]) it was 100 mM; in assay [6] (setting [13]), over 100 mM. For the same compound, the MIC is 40 mM in assay [7] (Aspergillus nidulans, 1 mM nitrate as sole nitrogen source); 80 mM in [7] (setting [11]); 30 mM in assay [7] (setting [12]); 60 mM in assay [7] (setting [13]); over 100 mM in [8] (Aspergillus nidulans); over 100 mM in assay [8] (setting [14]). The MIC in assay [8] (setting [15]), in assay [8] (setting [16]) and in [8] (setting [17]) was over 100 mM throughout. Moreover, the Ki at NrtA, NrtB (WT strain) was 45.1 ± 6.1 mM; at NrtA, NrtB (WT strain) (listed as caesium), 45 mM; on NrtB [1] (nrtA1 (NrtB), mean ± SE), 2.6 ± 0.02 mM; on NrtB [1] (nrtA1 (NrtB), mean ± SE, listed as caesium) it was about 3 mM; on NrtA [4] (K i, nrtB110 (NrtA), inhibitor concentration reducing net nitrate uptake rate by 50 % of control, mean ± SE), 55 mM and 54.8 mM. Moreover, the “nature of inhibition of nitrate transport (Lineweaver–Burk)” value with NrtB [1] was “uncompetitive”; in the assay with NrtB [1] (listed as caesium), “uncompetitive inhibition”; on NrtA [4] it was “non-competitive inhibitor”; on NrtA [4] (listed as caesium), “non-competitive inhibition”.

As to `O=CO` [Formate], the entries for the “Nitrate uptake ± SE” value in the assay on NrtB [1] (setting [18]) and on NrtA [4] (setting [19]) were 2.7 ± 0.1 nmol NO3 min^− 1 mg^− 1 and 8.1 ± 0.4 nmol NO3 min^− 1 mg^− 1, respectively. The “growth stunting on solid AMM” value in assay [2] is recorded as “no convincing phenotypic evidence of growth stunting”. The “inhibition of nitrate transport / uptake” value in assay [3] is “did not inhibit growth or nitrate uptake”.

On to `O=C(O)CC(=O)O` [Malonate, malonate], for which the “Nitrate uptake ± SE” value in the assay with NrtB [1] (setting [18]) was 2.7 ± 0.2 nmol NO3 min^− 1 mg^− 1. In addition, the “growth stunting on solid AMM” value in assay [2] is “no convincing phenotypic evidence of growth stunting”. In assay [3], the “inhibition of nitrate transport / uptake” value is given as “did not inhibit growth or nitrate uptake”.

Turning to `O=C(O)C(=O)O` [Oxalate], the “Nitrate uptake ± SE” value in the assay on NrtB [1] (setting [18]) turned out to be 2.4 ± 0.1 nmol NO3 min^− 1 mg^− 1; at NrtA [4] (setting [19]), 9.7 ± 0.4 nmol NO3 min^− 1 mg^− 1. Also, the “growth stunting on solid AMM” value in [2] is on record as “no convincing phenotypic evidence of growth stunting”. Also, in assay [3], the “inhibition of nitrate transport / uptake” value is “did not inhibit growth or nitrate uptake”.

For `O=S(O)O` [Sulphite, sulphite], the MIC is recorded as 15 mM (≈ 1230 µg/mL) in assay [5] (1 mM nitrate as sole nitrogen source, solid AMM, 37 °C); 15 mM (≈ 1230 µg/mL) in assay [5] (setting [20]); 15 mM (≈ 1230 µg/mL) in assay [5] (setting [21]); over 25 mM in assay [5] (setting [22]); 15 mM (≈ 1230 µg/mL) in assay [6] (setting [20]); over 25 mM in [6] (setting [22]). In addition, the MIC is on record as 15 mM (≈ 1230 µg/mL) in assay [7] (1 mM nitrate as sole nitrogen source); 15 mM (≈ 1230 µg/mL) in assay [7] (setting [20]); 15 mM (≈ 1230 µg/mL) in assay [7] (setting [21]); over 25 mM in assay [7] (setting [22]); 15 mM (≈ 1230 µg/mL) in assay [8] (setting [14]); 15 mM (≈ 1230 µg/mL) in [8] (setting [15]). The MIC in assay [8] (setting [16]) was 15 mM (≈ 1230 µg/mL); in [8] (setting [17]), over 25 mM. Also, the results for the “concentration at which growth ceased” value in assay [2] (media with 10 mM nitrate), in [2] (media with 10 mM proline) and in [2] (media with either 1 mM nitrate or proline) were 15 mM, over 25 mM and 15 mM, respectively.

In the case of `O=[N+]([O-])O` [nitrate], the K m stood at 0.0571 ± 0.0026 mM in the assay on NrtA, NrtB (WT strain) (setting [23]); 0.0114 ± 0.0024 mM in the assay on NrtB [1] (setting [24]); 0.041 ± 0.0048 mM on NrtA [4] (setting [25]). Further, the V max in the assay on NrtA, NrtB (WT strain) (setting [23]) came out at 14.2 ± 0.8; with NrtB [1] (setting [24]) it was 3.6 ± 0.2; at NrtA [4] (setting [25]), 9.1 ± 0.8. Besides, the “K m for nitrate” value is 0.096 mM at NrtA [9] (ref Unkles et al., 2001) and 0.011 mM with NrtB [10] (ref Unkles et al., 2001). Moreover, in the assay with A. nidulans WT strain, the “rate of nitrate efflux as % of influx” value is recorded as 8%.

In the case of `O=NO` [nitrite], the “K m for nitrite” value was 0.016 mM at NrtA [9] (ref Wang et al., 2008) and 0.011 mM in the assay with NrtB [10] (ref Wang et al., 2008).

Regarding `[Cl-].[Na+]` [sodium chloride], the effect on growth entry in assay [2] (100 mM sodium chloride, control for chloride) is “no effect on growth”.

In the case of Carbonic acid/bicarbonate, the “Nitrate uptake ± SE” value with NrtB [1] (setting [18]) stood at 2.7 ± 0.1 nmol NO3 min^− 1 mg^− 1; on NrtA [4] (setting [19]) it was 11.1 ± 0.4 nmol NO3 min^− 1 mg^− 1. The “growth stunting on solid AMM” value in [2] is given as “no convincing phenotypic evidence of growth stunting”.
